Source: patent publication US20070249599A1, “Novel Chemical Compounds” (priority 2004, published 2007)

Biological target: T1, hYAK3 (Homo sapiens, UniProt O43781)
T1 construct: GST (N); His6 (C); made in house; host or cells: baculovirus expression system in Sf9 cells
T1 sequence (O43781 124-526): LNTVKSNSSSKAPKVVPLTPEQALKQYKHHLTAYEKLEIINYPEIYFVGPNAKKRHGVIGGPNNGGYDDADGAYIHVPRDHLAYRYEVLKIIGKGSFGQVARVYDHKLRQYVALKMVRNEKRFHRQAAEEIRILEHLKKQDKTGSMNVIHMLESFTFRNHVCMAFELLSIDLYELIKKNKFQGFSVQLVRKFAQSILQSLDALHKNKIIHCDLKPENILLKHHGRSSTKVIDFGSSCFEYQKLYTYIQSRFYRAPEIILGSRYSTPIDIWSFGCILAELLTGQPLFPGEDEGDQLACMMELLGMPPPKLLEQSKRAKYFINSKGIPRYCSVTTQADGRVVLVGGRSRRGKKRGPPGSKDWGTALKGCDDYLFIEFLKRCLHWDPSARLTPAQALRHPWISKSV
Assay: YAK3 Scintillation Proximity Assay using Ser164 of myelin basic protein as the phosphoacceptor (kinase assay of purified hYAK3)
Format: biochemical
Conditions: purified GST-hYak3-His6 (aa 124-526), 4 nM; 0.001 mM ATP; 4 μM Ser164 peptide; 2 hours at room temperature; pIC50 = −log10(IC50)
Protocol: Substrate phosphorylation assays were carried out as follows:
YAK3 Scintillation Proximity Assays Using Ser164 of Myelin Basic Protein as the Phosphoacceptor
The source of Ser164 substrate peptide The biotinylated Ser164, S164A peptide(Biotinyl-LGGRDSRAGS*PMARR-OH), sequence derived from the C-terminus of bovine myelin basic protein (MBP) with Ser162 substituted as Ala 162, was purchased from California Peptide Research Inc. (Napa, Calif.), and its purity was determined by HPLC. Phosphorylation occurs at position 164 (marked S* above). The calculated molecular mass of the peptide was 2166 dalton. Solid sample was dissolved at 10 mM in DMSO, aliquoted, and stored at −20° C. until use.
hYAK3: Glutathione-S-Transferase (GST)-hYak3-His6 containing amino acid residues 124-526 of human YAK3 (aa 124-526 of SEQ ID NO 2. in U.S. Pat. No. 6,323,318) was purified from baculovirus expression system in Sf9 cells using Glutathione Sepharose 4B column chromatography followed by Ni-NTA-Agarose column chromatography. Purity greater than 65% typically was achieved. Samples, in 50 mM Tris, 150 mM NaCl, 10% glycerol, 0.1% Triton, 250 mM imidazole, 10 mM β-mercapto ethanol, pH 8.0. were stored at −80° C. until use.
Kinase assay of purified hYAK3: Assays were performed in 96 well (Costar, Catalog No. 3789) or 384 well plates (Costar, Catalog No. 3705). Reaction (in 20, 25, or 40 μl volume) mix contained in final concentrations 25 mM Hepes buffer, pH 7.4; 10 mM MgCl2; 10 mM β-mercapto ethanol; 0.0025% Tween-20; 0.001 mM ATP, 0.1 μCi of [γ-^33P]ATP; purified hYAK3 (7-14 ng/assay; 4 nM final); and 4 μM Ser164 peptide. Compounds, titrated in DMSO, were evaluated at concentrations ranging from 50 μM to 0.5 nM. […] Reactions were incubated for 2 hours at room temperature and were stopped by a 75 ul addition of […] Streptavidin Scintillation Proximity beads (Amersham Pharmacia Biotech, Catalog No. RPNQ 0007) in PBS, pH 7.4, 10 mM EDTA, 0.1% Triton X-100, 1 mM ATP. Under the assay conditions defined above, the Km(apparent) for ATP was determined to be 7.2+/−2.4 μM.

| Structure (SMILES) | IC50 [nM] |
| --- | --- |
| Cn1c(C(C)(C)C)nc2ccc(/C=C3\SC(Nc4ccccc4Cl)=NC3=O)cc21 [Example 53, (5Z)-2-[(2-Chlorophenyl)amino]-5-{[2-(1,1-dimethylethyl)-1-methyl-1H-benzimidazol-6-yl]methylidene}-1,3-thiazol-4(5H)-one] | 102 to 1000 |
| CN(C)CCn1nnc2ccc(/C=C3\SC(Nc4c(Cl)cccc4Cl)=NC3=O)cc21 [Example 58, (5Z)-2-[(2,6-dichlorophenyl)amino]-5-({1-[2-(dimethylamino)ethyl]-1H-1,2,3-benzotriazol-6-yl}methylidene)-1,3-thiazol-4(5H)-one] | 10.2 to 100 |
| Cc1nc2ccc(C=C3SC(=Nc4c(Cl)cccc4Cl)NC3=O)cc2o1 [Example 59, 2-(2,6-Dichloro-phenylimino)-5-(2-methyl-benzooxazol-6-yl-methylene)-thiazolidin-4-one] | 1.02 to 10 |
